The text below walks through data of patent US20090247558A1, “USE OF THE CRH (CORTICOTROPIN RELEASING HORMONE) - UCN (UROCORTIN) SYSTEM IN THE TREATMENT OF INFLAMMATORY DISEASES” (priority 2002, published 2009).

One assay relates to RAW-264.7 macrophages. The assay is described as follows: Apoptosis and proliferation of RAW264.7 macrophages (nucleosome formation, flow cytometry). Format: cell-based, mouse. Here is the method: (§1) Cells were plated in 96-well plates at an initial concentration of 10,000 cells per well. Apoptosis was measured by direct determination of nucleosomal DNA fragmentation with the “cell death detection” ELISA plus kit according to the manufacturer's protocol.
(§2) Cells were treated with UCN and/or LPS at the indicated concentrations for different time points, collected in PBS and incubated with 7-amino-actinomycin (7AAD) for 10 minutes. Cells were washed and analyzed by Flow Cytometry (Coulter).
(Flow cytometry measures light scatter and fluorescence of single cells or particles in a stream.)

The next assay deals with T1, CRH-R2 receptor (Mus musculus, UniProt Q60748).
T1 construct: monocyte/macrophage cells which express both the CRH-R1 and the CRH-R2 receptors on the surface; endogenous in cells; host or cells: macrophages
T1 sequence (Q60748 whole entry): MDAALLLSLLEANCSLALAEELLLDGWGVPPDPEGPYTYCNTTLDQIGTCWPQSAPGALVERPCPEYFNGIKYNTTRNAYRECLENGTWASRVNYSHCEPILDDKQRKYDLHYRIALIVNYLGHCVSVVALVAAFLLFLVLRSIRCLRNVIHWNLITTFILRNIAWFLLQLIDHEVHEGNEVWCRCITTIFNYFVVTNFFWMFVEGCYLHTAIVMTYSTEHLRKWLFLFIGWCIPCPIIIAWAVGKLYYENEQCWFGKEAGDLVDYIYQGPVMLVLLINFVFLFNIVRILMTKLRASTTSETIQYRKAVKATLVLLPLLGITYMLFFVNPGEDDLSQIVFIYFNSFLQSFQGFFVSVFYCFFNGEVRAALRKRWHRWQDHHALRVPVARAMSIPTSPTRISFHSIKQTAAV
The note with it: cited from earlier work.

Assay [1] deals with primary bone marrow macrophages. In words: Apoptosis of primary bone marrow macrophages. The format is cell-based. The method, then:
as §1, §2

The next assay relates to RAW264.7 cells. In words: Stress kinase, Bax and Fas Ligand in RAW264.7 cells (Western blot). The format is cell-based, mouse. The method, then: Following stimulation cells were harvested and lyzed in 62.5 mM Tris HCl pH=6.8, 10% glycerol, 2% SDS, and freshly added inhibitors phenylmethylsulfonyl fluoride (10 μg/ml), 0.5 mM DTT and 50 mM Na2F.
(In general: Immunoblotting shows a protein as a band on a membrane.)

No end group written: not given here.

As for “urocortin (DNPSLSIDLTFHLLRTLLELARTQSQRERAEQNRIIFDSV; ends and bridges not checked; UniProt P55089 83-122, looked up) [UCN]”, in the assay on RAW-264.7 macrophages (cells cultured in the presence of serum), the cell proliferation entry was “promoted cell proliferation”. The apoptosis entry in the assay with RAW-264.7 macrophages (serum-deprived, LPS-induced cells, 10^−9M UCN, 10 μg/ml LPS) was “promoted apoptosis”. For the same substance, the apoptosis on macrophages result in the assay with CRH-R2 receptor was “induce apoptosis”. Further, the LPS-induced apoptosis result in assay [1] is recorded as “enhanced”. The “LPS-induced p38MAPK and JNK activation” value in the assay with RAW264.7 cells (UCN plus LPS) is given as “enhances”. Besides, in the assay with RAW264.7 cells (UCN treatment), the Bax result is “upregulation”; the “Fas Ligand expression” value is given as “enhancement”; the “activation of the stress-induced kinases JNK and p38MAPK” value was “rapid activation”.
